Results on 14 compounds are retold here after ChEMBL document CHEMBL1122711, “Design, synthesis, and testing of potential antisickling agents. 4. Structure-activity relationships of benzyloxy and phenoxy acids” (J Med Chem, 1984).

The conditions of data set [1]: human, 5000 µM.
Description: Solubility ratio ([HbS+drug (5 mM)]/[HbS-drug])
The conditions of data set [2]: human, 40000 µM.
Description: Solubility ratio ([HbS+drug (40 mM)]/[HbS-drug])
For data set [3] the following is noted: human, 20000 µM.
Description: Solubility ratio ([HbS+drug (20 mM)]/[HbS-drug]
The conditions of data set [4]: human, 10000 µM.

On to `O=C(O)COc1c(Br)cc(Br)cc1Br`, for which the Solubility ratio in data set [1] was 1.018; in data set [2] it was 1.248; in data set [3], 1.145; in data set [4] it was 1.077.
Regarding `Cc1ccc(OCC(=O)O)c(Br)c1`, the Solubility ratio in data set [1] worked out at 1.031; in data set [2], 1.189; in data set [3], 1.102; in data set [4], 1.035.
For `Cc1cc(C)c(C)c(OCC(=O)O)c1`, in that order: 1.035, 1.351, 1.18 and 1.086.
As for `CC(C)(OCc1ccc(Br)cc1)C(=O)O`, the Solubility ratio in data set [1] was 1.048; in data set [2], 1.379; in data set [3], 1.193; in data set [4], 1.086.
Consider `Cc1cc(OCC(=O)O)cc(C)c1Cl`, for which the Solubility ratio was 1.033 in data set [1], 1.216 in data set [2], 1.124 in data set [3] and 1.054 in data set [4].
For `Cc1ccc(OCC(=O)O)cc1C`, in that order: 1.027, 1.243, 1.118 and 1.06.
As to `O=C(O)COCc1ccc(Cl)cc1Cl`, the Solubility ratio in data set [1] came out at 1.079; in data set [2], 1.246; in data set [3], 1.295; in data set [4], 1.13.
On the same counts, the results for `O=C(O)C(CCc1ccccc1)C(=O)O` are 1.007, 1.263, 1.101 and 1.058.
For `CN(C)c1ccc(OCC(=O)O)cc1.Cl`, in that order: 1.022, 1.057, 1.011 and 1.044.
For `O=C(O)COc1ccc(Cl)cc1Cl` [2,4-DICHLOROPHENOXYACETIC ACID], in that order: 1.049, 1.313, 1.151 and 1.083.
For the compound `CC(C)(Oc1ccc(CCNC(=O)c2ccc(Cl)cc2)cc1)C(=O)O` [BEZAFIBRATE], the Solubility ratio was determined as 0.954 in data set [1], 1.198 in data set [2], 0.981 in data set [3] and 0.932 in data set [4].
On the same counts, the results for `CC(C)(Oc1ccc(Cl)cc1)C(=O)O` [CLOFIBRIC ACID] are 1.018, 1.302, 1.155 and 1.064.
On the same counts, the results for `Cc1ccc(C)c(OCCCC(C)(C)C(=O)O)c1` [GEMFIBROZIL] are 1.04, 1.234, 1.117 and 1.073.
As for `N[C@@H](Cc1ccccc1)C(=O)O` [PHENYLALANINE], the Solubility ratio in data set [1] is 1.036; in data set [2] it was 1.178; in data set [3] it was 1.093; in data set [4], 1.048.
